Assay results taken from the supplement of paper PMC10307832.

Tests used:
Test in all cases: relative viability (nuclei count vs DMSO), 5 days (fraction); higher = more cells survive
Bicalutamide + Olaparib = compound: CC(O)(CS(=O)(=O)c1ccc(F)cc1)C(=O)Nc1ccc(C#N)c(C(F)(F)F)c1 [Bicalutamide] + O=C(c1cc(Cc2n[nH]c(=O)c3ccccc23)ccc1F)N1CCN(C(=O)C2CC2)CC1 [Olaparib] (partner 8 µM)
Outline: (§1)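 Lung cancer cell lines in 1536-well plates got either a single drug or a fixed anchor-drug dose together with five library-drug doses (not always all listed) in √10 steps, by pin tool, on the day after seeding. Nuclei were counted after 5 days, and relative viability is the treated-to-vehicle ratio of nuclei counts. Values are medians of duplicate plates.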

[1] = compound: CC(O)(CS(=O)(=O)c1ccc(F)cc1)C(=O)Nc1ccc(C#N)c(C(F)(F)F)c1 [Bicalutamide] + Nc1nc2[nH]cc(CCc3ccc(C(=O)N[C@@H](CCC(=O)O)C(=O)O)cc3)c2c(=O)[nH]1 [Pemetrexed] (partner 0.2 µM)
Outline: as §1

[2] = compound: CC(O)(CS(=O)(=O)c1ccc(F)cc1)C(=O)Nc1ccc(C#N)c(C(F)(F)F)c1 [Bicalutamide] + C[C@@H](Oc1cc(-c2cnn(C3CCNCC3)c2)cnc1N)c1c(Cl)ccc(F)c1Cl [Crizotinib] (partner 1 µM)
Outline: as §1

[3] = compound: C(C(=O)C(=O)O)Br [Bromopyruvate] + C[C@]1(O)C[C@@H](c2nc(-c3ccc4ccc(-c5ccccc5)nc4c3)c3c(N)nccn32)C1 [Linsitinib] (partner 1 µM)
Outline: as §1

Row | Cell Line | relative viability (Bicalutamide + Olaparib; first compound 0.08 µM) | relative viability (Bicalutamide + Olaparib; first compound 0.253 µM) | relative viability (Bicalutamide + Olaparib; first compound 0.8 µM) | relative viability (Bicalutamide + Olaparib; first compound 2.53 µM) | relative viability ([1]; first compound 0.08 µM) | relative viability ([1]; first compound 0.253 µM) | relative viability ([1]; first compound 0.8 µM) | relative viability ([1]; first compound 2.53 µM) | relative viability ([2]; first compound 0.08 µM) | relative viability ([2]; first compound 0.253 µM) | relative viability ([2]; first compound 0.8 µM) | relative viability ([2]; first compound 2.53 µM) | relative viability ([3]; first compound 1 µM) | relative viability ([3]; first compound 3.162 µM) | relative viability ([3]; first compound 10 µM) | relative viability ([3]; first compound 31.62 µM) | relative viability ([3]; first compound 100 µM)
1 | COR-L 105 | 0.847 | 0.777 | 0.632 | 0.662 | 1.25 | 1.19 | 1.08 | 1.05 | 0.874 | 0.728 | 0.661 | 0.448 | 0.943 | 0.898 | 0.838 | 0.736 | 0.702
2 | SK-LU-1 | 0.502 | 0.482 | 0.633 | 0.486 | 1.03 | 1.02 | 1.19 | 0.928 | 0.936 | 0.967 | 1.08 | 0.854 | 1.02 | 1.09 | 1.12 | 0.964 | 1.09
3 | LXF-289 | 1.04 | 1.08 | 1.18 | 1.01 | 0.929 | 0.815 | 0.916 | 0.949 | 0.815 | 0.79 | 0.797 | 0.807 | 0.966 | 0.969 | 0.981 | 0.951 | 1.01
4 | PC-3 [JPC-3] | 1.22 | 1.09 | 1.16 | 1.24 | 1.08 | 1.11 | 1.41 | 1.12 | 1.02 | 1.07 | 1.06 | 1.02 | 1.02 | 0.975 | 0.943 | 0.914 | 1.01
5 | NCI-H661 | 0.815 | 0.768 | 0.74 | 0.779 | 0.939 | 0.965 | 0.942 | 0.896 | 1.14 | – | 0.881 | 0.989 | 0.556 | 0.631 | 0.591 | 0.727 | 0.676
6 | NCI-H1666 | 0.733 | 0.814 | 0.728 | 0.744 | 0.886 | 0.865 | 0.894 | 0.879 | 1.13 | 0.969 | 1.15 | 0.794 | 0.736 | 0.764 | 0.783 | 0.744 | 0.86
7 | NCI-H2087 | 0.527 | 0.51 | 0.75 | 0.572 | 0.684 | 0.662 | 0.695 | 0.613 | 1 | 0.993 | 0.887 | 0.971 | 0.856 | 1.04 | 0.932 | 0.954 | 0.959
8 | NCI-H1734 | 0.623 | 0.546 | 0.685 | 0.606 | 0.428 | 0.405 | 0.455 | 0.393 | 0.667 | 0.553 | 0.798 | 0.616 | 0.837 | 0.949 | 0.989 | 0.852 | 0.905
9 | NCI-H2228 | 0.748 | 0.536 | 1.16 | 0.524 | 0.343 | 0.351 | 0.334 | 0.323 | 0.443 | 0.52 | 0.754 | 0.463 | 0.81 | 0.837 | 0.693 | 0.535 | 0.505
10 | EMC-BAC-2 | 0.528 | 0.462 | 0.494 | 0.397 | 0.447 | 0.41 | 0.489 | 0.444 | 0.781 | 0.716 | 0.904 | 0.586 | 0.716 | 0.825 | 0.9 | 0.838 | 0.887
11 | NCI-H2009 | 0.675 | 0.702 | 0.715 | 0.667 | 1.13 | 1.04 | 1.11 | 0.91 | 1.01 | 1.01 | 1.04 | 0.973 | 1.16 | 1.25 | 1.22 | 1.1 | 0.97
12 | NCI-H596 | 0.604 | 0.767 | 0.799 | 0.844 | 0.489 | 0.459 | 0.56 | 0.552 | 0.898 | 1.51 | 1.08 | 1.04 | 0.998 | 0.991 | 1.18 | 1.03 | 1.19
13 | NCI-H650 | 0.373 | 0.395 | 0.401 | 0.396 | 0.88 | 0.932 | 0.994 | 0.992 | 0.725 | 0.645 | 0.932 | 0.438 | 0.756 | 0.976 | 0.871 | 0.921 | 1.03
14 | NCI-H1792 | 0.493 | 0.365 | 0.39 | 0.257 | 0.825 | 0.658 | 1.16 | 0.831 | 0.922 | 0.888 | 1.02 | 1.02 | 0.538 | 0.533 | 0.718 | 0.522 | 0.456
15 | SW 1573 | 0.542 | 0.525 | 0.428 | 0.472 | 0.952 | 0.749 | 1.02 | 0.819 | 0.972 | 0.761 | 1.08 | 0.721 | 0.839 | 0.842 | 0.794 | 0.776 | 0.651
16 | NCI-H2023 | 0.534 | 0.493 | 0.495 | 0.394 | 0.267 | 0.175 | 0.279 | 0.223 | 0.691 | 0.601 | 0.679 | 0.462 | 0.664 | 0.72 | 0.682 | 0.752 | 0.605
17 | LOU-NH91 | 0.899 | 0.847 | 0.976 | 0.955 | 0.429 | 0.379 | 0.39 | 0.378 | 0.726 | 0.681 | 0.766 | 0.744 | 0.89 | 0.964 | 0.944 | 1.04 | 1.1
18 | NCI-H3122 | 0.536 | 0.657 | 0.712 | 0.617 | 0.202 | 0.193 | 0.197 | 0.199 | 0.281 | 0.26 | 0.277 | 0.281 | 1.02 | 1.02 | 1.03 | 0.987 | 0.941
